# In article PMC2737586 (Chemistry & biology, 2009):
# Experiments:
# Assay type in all cases: biochemical
# ValD [1] = biological target: ValD (Streptomyces hygroscopicus, UniProt Q1L2K7, H130N); assay: TLC of epimerization, relative activity; conditions: TLC after 30 min
# ValD [2] = biological target: ValD (Streptomyces hygroscopicus, UniProt Q1L2K7, E366A); assay: TLC and 1H NMR of epimerization, relative activity; conditions: TLC after 30 min
# ValD [3] = biological target: ValD (Streptomyces hygroscopicus, UniProt Q1L2K7, H315N); assay: TLC of epimerization, relative activity; conditions: TLC after 30 min
# ValD [4] = biological target: ValD (Streptomyces hygroscopicus, UniProt Q1L2K7, H44N); assay: TLC and 1H NMR of epimerization, relative activity; conditions: TLC after 30 min
# ValD [5] = biological target: ValD (Streptomyces hygroscopicus, UniProt Q1L2K7, E291A); assay: TLC of epimerization, relative activity; conditions: TLC after 30 min
# N-terminal half of ValD = N-terminal half of ValD (Streptomyces hygroscopicus, UniProt Q1L2K7); assay: in vitro epimerase assay
# ValD [6] = biological target: ValD (Streptomyces hygroscopicus, UniProt Q1L2K7, E107A); assay: TLC of epimerization, relative activity; conditions: TLC after 30 min
# ValD [7] = biological target: ValD (Streptomyces hygroscopicus, UniProt Q1L2K7, H229N); assay: TLC and 1H NMR of epimerization, relative activity; conditions: TLC after 30 min
# C-terminal half of ValD = C-terminal half of ValD (Streptomyces hygroscopicus, UniProt Q1L2K7); assay: in vitro epimerase assay
# ValD [8] = biological target: ValD (Streptomyces hygroscopicus, UniProt Q1L2K7, E183A); assay: TLC and 1H NMR of epimerization, relative activity; conditions: TLC after 30 min
smiles,measurement,setting,value
O=C1C[C@@](O)(CO)[C@@H](O)[C@H](O)[C@@H]1O [2-epi-5-epi-valiolone],"TLC of epimerization, relative activity",ValD [1],"H130N, E183A, H229N, and E291A proteins had a comparable epimerase activity"
same,"TLC and 1H NMR of epimerization, relative activity",ValD [2],"H44N, E107A, and E366A proteins had significantly reduced activities"
same,"TLC of epimerization, relative activity",ValD [3],Mutation at H315 appeared to have moderate effect on the epimerase activity
same,"TLC and 1H NMR of epimerization, relative activity",ValD [4],"H44N, E107A, and E366A proteins had significantly reduced activities"
same,"TLC of epimerization, relative activity",ValD [5],"H130N, E183A, H229N, and E291A proteins had a comparable epimerase activity"
same,in vitro epimerase assay (data not shown),N-terminal half of ValD,truncated proteins have a significantly reduced capacity to convert 2-epi-5-epi-valiolone to 5-epi-valiolone (data not shown)
same,"TLC of epimerization, relative activity",ValD [6],"H44N, E107A, and E366A proteins had significantly reduced activities"
same,"TLC and 1H NMR of epimerization, relative activity",ValD [7],"H130N, E183A, H229N, and E291A proteins had a comparable epimerase activity"
same,in vitro epimerase assay (data not shown),C-terminal half of ValD,truncated proteins have a significantly reduced capacity to convert 2-epi-5-epi-valiolone to 5-epi-valiolone (data not shown)
same,"TLC and 1H NMR of epimerization, relative activity",ValD [8],"H130N, E183A, H229N, and E291A proteins had a comparable epimerase activity"
